Experiment [1] concerns the target T1, Human recombinant AT1 receptor (Homo sapiens, UniProt P30556).
T1 construct: purchased
T1 sequence (P30556 1-359): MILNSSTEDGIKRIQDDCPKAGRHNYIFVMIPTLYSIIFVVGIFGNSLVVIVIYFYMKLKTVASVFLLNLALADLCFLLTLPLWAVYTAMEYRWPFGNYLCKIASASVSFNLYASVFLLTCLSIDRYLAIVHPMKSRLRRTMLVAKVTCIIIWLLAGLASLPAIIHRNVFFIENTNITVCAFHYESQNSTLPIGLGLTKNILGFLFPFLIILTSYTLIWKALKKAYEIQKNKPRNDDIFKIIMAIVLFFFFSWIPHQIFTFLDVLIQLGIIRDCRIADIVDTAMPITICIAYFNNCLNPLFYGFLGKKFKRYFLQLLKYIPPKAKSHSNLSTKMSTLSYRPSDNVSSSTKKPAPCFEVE
Description: AT1 receptor radioligand binding (flashplate). Particulars: 125I Sar1,Ile8-Angiotensin II radioligand. Put shortly: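 Human recombinant AT1 receptor was coated on flashplates and competed against 125I-Sar1,Ile8-angiotensin II at its Kd concentration for 2 h at room temperature. Compounds were tested from […], with nonspecific binding defined by 10 μM angiotensin II. Ki was derived via Cheng-Prusoff.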

Experiment [2] deals with T2, human PPARγ LBD bound to Gal4 DBD (Homo sapiens, UniProt P37231).
T2 construct: expressed in transfected cells; host or cells: HepG2
T2 sequence (P37231 238-503 limits assumed): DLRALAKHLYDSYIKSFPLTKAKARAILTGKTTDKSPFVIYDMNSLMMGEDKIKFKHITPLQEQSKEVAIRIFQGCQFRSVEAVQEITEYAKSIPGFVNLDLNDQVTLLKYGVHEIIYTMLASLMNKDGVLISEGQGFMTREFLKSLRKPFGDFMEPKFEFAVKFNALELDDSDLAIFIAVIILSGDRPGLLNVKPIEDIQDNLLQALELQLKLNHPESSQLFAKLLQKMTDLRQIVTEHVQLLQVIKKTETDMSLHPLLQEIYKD
Briefly: PPARγ transfection luciferase reporter assay in HepG2 cells. Format: cell-based. The conditions noted are these: for Emax: HepG2, 24 h, compared to full agonist response (standard TZD full agonist), read-out: PPARγ % activation; for EC50: HepG2, 24 hours exposure. Put shortly:
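HepG2 cells transiently co-transfected with Gal4 DBD–PPARγ LBD, luciferase reporter and β-galactosidase, then exposed 24 h to compound (0.1 nM–100 μM). Luciferase/β-gal ratio gives activation. EC50 is relative to each compound's own maximum; efficacy is % of a reference TZD full agonist.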

The IC50 is the point on the concentration scale where inhibition reaches its midpoint. As a reminder, the EC50 is the concentration needed to bring the measured effect to its halfway point. Lower therefore signals higher potency in that assay. Take `CCc1nc2c(C)cc(CCc3cccnc3)nc2n1[C@H]1CCc2cc(-c3ccccc3-c3nnn[nH]3)ccc21` [Example 24, 3-((1S)-5-(2-(1H-tetrazol-5-yl)phenyl)-2,3-dihydro-1H-inden-1-yl)-2-ethyl-7-methyl-5-(2-(pyridin-3-yl)ethyl)-3H-imidazo[4,5-b]pyridine]: the IC50 in experiment [1] turned out to be 2.1 nM. Further, in experiment [2], the Emax is 28% and the EC50 is 425 nM.
The like results for `CCc1nc2c(C)cc(CCC(C)(O)C(C)(C)C)nc2n1[C@H]1CCc2cc(-c3ccccc3-c3nnn[nH]3)ccc21` (stereo partly drawn) [Example 68, 1-(3-((1S)-5-(2-(1H-tetrazol-5-yl)phenyl)-2,3-dihydro-1H-inden-1-yl)-2-ethyl-7-methyl-3H-imidazo[4,5-b]pyridin-5-yl)-3,4,4-trimethylpentan-3-ol] were, in that order, 6.5 nM, 34% and 45 nM.
For `CCc1nc2c(C)cc(Cc3ccccc3)nc2n1[C@H]1CCc2cc(-c3ccccc3-c3nnn[nH]3)ccc21` [Example 1, 3-((1S)-5-(2-(1H-tetrazol-5-yl)phenyl)-2,3-dihydro-1H-inden-1-yl)-5-benzyl-2-ethyl-7-methyl-3H-imidazo[4,5-b]pyridine], the IC50 in experiment [1] was 4.5 nM. Besides, in experiment [2], the Emax came out at 27% and the EC50 came out at 90 nM.
Take `CCCc1nc2c(C)cc(CCC(C)(O)CC)nc2n1[C@H]1CCc2cc(-c3ccccc3-c3nnn[nH]3)ccc21` (stereo partly drawn) [Example 50, 1-(3-((1S)-5-(2-(1H-tetrazol-5-yl)phenyl)-2,3-dihydro-1H-inden-1-yl)-7-methyl-2-propyl-3H-imidazo[4,5-b]pyridin-5-yl)-3-methylpentan-3-ol]: in experiment [1], the IC50 was determined as 1.7 nM. Further, in experiment [2], the Emax came out at 30% and a half-maximal response (EC50) required 415 nM.
For `CCc1nc2c(C)cc(CCC3CC3)nc2n1[C@H]1CCc2cc(-c3ccccc3-c3nnn[nH]3)ccc21` [Example 59, 3-((1S)-5-(2-(1H-tetrazol-5-yl)phenyl)-2,3-dihydro-1H-inden-1-yl)-5-(2-cyclopropylethyl)-2-ethyl-7-methyl-3H-imidazo[4,5-b]pyridine] the same measures were 2.9 nM, 30% and 215 nM.
Consider `CCc1nc2c(C)cc(CC[C@H](O)CC)nc2n1[C@H]1CCc2cc(-c3ccccc3-c3nnn[nH]3)ccc21` [Example 45, (R)-1-(3-((1S)-5-(2-(1H-tetrazol-5-yl)phenyl)-2,3-dihydro-1H-inden-1-yl)-2-ethyl-7-methyl-3H-imidazo[4,5-b]pyridin-5-yl)pentan-3-ol], for which the IC50 in experiment [1] was determined as 1.1 nM. In experiment [2], the Emax worked out at 32% and a half-maximal response (EC50) required 140 nM.
As for `CCc1nc2c(C)cc(CC3CCCC3O)nc2n1[C@H]1CCc2cc(-c3ccccc3-c3nnn[nH]3)ccc21` (single isomer, unassigned) [Example 65], the IC50 in experiment [1] came out at 2.3 nM. In experiment [2], the Emax was found to be 22% and a half-maximal response (EC50) required 245 nM.
For `CCc1nc2c(C)cc(CCC3(O)CCCCC3)nc2n1[C@H]1CCc2cc(-c3ccccc3-c3nnn[nH]3)ccc21` [Example 52, 1-(2-(3-((1S)-5-(2-(1H-tetrazol-5-yl)phenyl)-2,3-dihydro-1H-inden-1-yl)-2-ethyl-7-methyl-3H-imidazo[4,5-b]pyridin-5-yl)ethyl)cyclohexanol] the same measures were 1.3 nM, 36% and 290 nM.
On to `CCc1nc2c(C)cc(CCC3CCCCC3)nc2n1[C@H]1CCc2cc(-c3ccccc3-c3nnn[nH]3)ccc21` [Example 58, 3-((1S)-5-(2-(1H-tetrazol-5-yl)phenyl)-2,3-dihydro-1H-inden-1-yl)-5-(2-cyclohexylethyl)-2-ethyl-7-methyl-3H-imidazo[4,5-b]pyridine], for which, in experiment [1], the IC50 is 3.8 nM. In experiment [2], the Emax amounted to 31% and the EC50 amounted to 200 nM.
With `CCCc1nc2c(C)cc(CCC(C)O)nc2n1[C@H]1CCc2cc(-c3ccccc3-c3nnn[nH]3)ccc21` (stereo partly drawn) [Example 49, 4-(3-((1S)-5-(2-(1H-tetrazol-5-yl)phenyl)-2,3-dihydro-1H-inden-1-yl)-7-methyl-2-propyl-3H-imidazo[4,5-b]pyridin-5-yl)butan-2-ol], the half-maximal inhibitory concentration (IC50) in experiment [1] amounted to 1.6 nM. Moreover, in experiment [2], the Emax was 18% and the EC50 was determined as 815 nM.
Take `CCc1nc2c(C)cc(CC3CCCCC3=O)nc2n1[C@H]1CCc2cc(-c3ccccc3-c3nnn[nH]3)ccc21` (stereo partly drawn) [Example 63, 2-((3-((1S)-5-(2-(1H-tetrazol-5-yl)phenyl)-2,3-dihydro-1H-inden-1-yl)-2-ethyl-7-methyl-3H-imidazo[4,5-b]pyridin-5-yl)methyl)cyclohexanone]: the IC50 in experiment [1] was 2.4 nM. In experiment [2], the Emax amounted to 27% and the response was half-maximal at 295 nM (EC50).
As to `CCc1nc2c(C)cc([C@@H](OC)C(C)C)nc2n1[C@H]1CCc2cc(-c3ccccc3-c3nnn[nH]3)ccc21` [Example 12, 3-((1S)-5-(2-(1H-tetrazol-5-yl)phenyl)-2,3-dihydro-1H-inden-1-yl)-2-ethyl-5-((S)-1-methoxy-2-methylpropyl)-7-methyl-3H-imidazo[4,5-b]pyridine], the IC50 in experiment [1] is 0.7 nM. Moreover, in experiment [2], the Emax is 17% and the EC50 turned out to be 460 nM.
Regarding `CCc1nc2c(C)cc(C(=O)CC(C)C)nc2n1[C@H]1CCc2cc(-c3ccccc3-c3nnn[nH]3)ccc21` [Example 60, 1-(3-((1S)-5-(2-(1H-tetrazol-5-yl)phenyl)-2,3-dihydro-1H-inden-1-yl)-2-ethyl-7-methyl-3H-imidazo[4,5-b]pyridin-5-yl)-3-methylbutan-1-one], the IC50 in experiment [1] was 22 nM. In experiment [2], the Emax worked out at 21% and the EC50 was 525 nM.
Consider `CCc1nc2c(C)cc([C@@H](O)c3ccccc3)nc2n1[C@H]1CCc2cc(-c3ccccc3-c3nnn[nH]3)ccc21` (single isomer, unassigned) [Example 8a], for which the IC50 in experiment [1] is 1.3 nM. In experiment [2], the Emax came to 16% and the EC50 was determined as 60 nM.
Take `CCc1nc2c(C)cc(C3OC3(C)C)nc2n1[C@H]1CCc2cc(-c3ccccc3-c3nnn[nH]3)ccc21` (stereo partly drawn) [Example 22, 3-((1S)-5-(2-(1H-tetrazol-5-yl)phenyl)-2,3-dihydro-1H-inden-1-yl)-5-(3,3-dimethyloxiran-2-yl)-2-ethyl-7-methyl-3H-imidazo[4,5-b]pyridine]: the half-maximal inhibitory concentration (IC50) in experiment [1] was 2.2 nM. For the same compound, in experiment [2], the Emax was determined as 28% and a half-maximal response (EC50) required 460 nM.
`CCc1nc2c(C)cc(C(C)(C)OC)nc2n1[C@H]1CCc2cc(-c3ccccc3-c3nnn[nH]3)ccc21` [Example 17, 3-((1S)-5-(2-(1H-tetrazol-5-yl)phenyl)-2,3-dihydro-1H-inden-1-yl)-2-ethyl-5-(2-methoxypropan-2-yl)-7-methyl-3H-imidazo[4,5-b]pyridine]: the IC50 in experiment [1] amounted to 8.8 nM. Moreover, in experiment [2], the Emax amounted to 24% and the EC50 came to 65 nM.
Consider `C=CCC(O)Cc1cc(C)c2nc(CC)n([C@H]3CCc4cc(-c5ccccc5-c5nnn[nH]5)ccc43)c2n1` (stereo partly drawn) [Example 20, 1-(3-((1S)-5-(2-(1H-tetrazol-5-yl)phenyl)-2,3-dihydro-1H-inden-1-yl)-2-ethyl-7-methyl-3H-imidazo[4,5-b]pyridin-5-yl)pent-4-en-2-ol], for which, in experiment [1], the IC50 came to 5.7 nM. In addition, in experiment [2], the Emax is 31% and the midpoint of the response, the EC50, lay at 70 nM.
The like results for `CCCc1nc2c(C)cc(CC[C@H](C)O)nc2n1[C@H]1CCc2cc(-c3ccccc3-c3nnn[nH]3)ccc21` [Example 41, (S)-4-(3-((1S)-5-(2-(1H-tetrazol-5-yl)phenyl)-2,3-dihydro-1H-inden-1-yl)-7-methyl-2-propyl-3H-imidazo[4,5-b]pyridin-5-yl)butan-2-ol] were, in that order, 0.9 nM, 21% and 965 nM.
In the case of `CCCc1nc2c(C)cc(CCC(C)(O)c3ccccc3)nc2n1[C@H]1CCc2cc(-c3ccccc3-c3nnn[nH]3)ccc21` (stereo partly drawn) [Example 51, 4-(3-((1S)-5-(2-(1H-tetrazol-5-yl)phenyl)-2,3-dihydro-1H-inden-1-yl)-7-methyl-2-propyl-3H-imidazo[4,5-b]pyridin-5-yl)-2-phenylbutan-2-ol], the IC50 in experiment [1] was determined as 2.1 nM. Besides, in experiment [2], the Emax is 36% and the concentration giving a half-maximal response (EC50) came out at 130 nM.
As for `CCc1nc2c(C)cc(CCc3ccccc3)nc2n1[C@H]1CCc2cc(-c3ccccc3-c3nnn[nH]3)ccc21` [Example 30, 3-((1S)-5-(2-(1H-tetrazol-5-yl)phenyl)-2,3-dihydro-1H-inden-1-yl)-2-ethyl-7-methyl-5-phenethyl-3H-imidazo[4,5-b]pyridine], the IC50 in experiment [1] amounted to 6 nM. Further, in experiment [2], the Emax was found to be 28% and the midpoint of the response, the EC50, lay at 160 nM.

Source of the values: US20100029710A1, “COMPOUNDS HAVING BOTH ANGIOTENSIN II RECEPTOR ANTAGONISM AND PPARy ACTIVATING ACTIVITIES” (Pfizer Products Inc., priority 2006, published 2010).
